Measurements taken from US20250171420A1 (Monte Rosa Therapeutics, Inc., priority 2022, published 2025).

How the values were obtained:
CK1α = target: T1, CK1α (Homo sapiens, UniProt P48729); assay: CK1α NanoBit Assay (HiBiT-tagged CSNK1A1, HEK293 clonal lines); type: cell-based; conditions: HEK293 HiBiT-CSNK1A1/LgBiT cells, 24 h incubation
T1 construct: HEK293 clonal lines with CRISPR KI HiBiT tag on CSNK1A1
Method: HEK293 clonal lines with CRISPR KI HiBiT tag on CSNK1A1 and stably expressing LgBiT protein were obtained from Promega (Madison, WI). […] Cells were incubated at 37° C., 5% CO2 for 24 hours and then signal was read on a Pherastar FSX using “LUM plus” optic module.
Data analysis was performed in Scinamic (Scinamic, Cambridge, MA). Luminescence response (R) was calculated by the formula: response=100*(S−N)/(P−N) where S is the signal of the well, N and P the mean negative and positive control values respectively of the same plate.
DC50 data are reported in Table 2 for compounds in Table 1. In Table 2 below, According to the code, A represents a DC50 value of ≤0.1 μM, B represents a DC50 value>0.1 μM and ≤1 μM, C represents an DC50 value>1 μM.

CRBN/DDB1 = CRBN/DDB1 (Homo sapiens, UniProt Q96SW2); assay: HTRF binding assay (displacement of Cy5-thalidomide probe from CRBN/DDB1); conditions: CRBN/DDB1 2.5 nM, Cy5-Thalidomide 100 nM, 30 min; geometric mean; read-out: HTRF_Thali_Disp_DR_geo_IC50
From the text: Binding of test compounds to CRBN/DDB1 was monitored in an HTRF assay using 1-[5-({2-[2-(2-{[2-(2,6-dioxopiperidin-3-yl)-1,3-dioxo-2,3-dihydro-1H-isoindol-4-yl]oxy}acetamido)ethoxy]ethyl}carbamoyl)pentyl]-3,3-dimethyl-2-[(1E,3E)-5-[(2E)-1,3,3-trimethyl-5-sulfo-2,3-dihydro-1H-indol-2-ylidene]penta-1,3-dien-1-yl]-3H-indol-1-ium-5-sulfonate as a fluorescent probe. In this assay, compounds displace the fluorescently labeled thalidomide-based probe bound to CRBN and fluorescence is monitored with increasing compound concentration. Assays were conducted in Greiner white 384 well HiBase plates (Cat. No 784075-25) in 10 μL total volume. A one pot detection solution of CRBN/DDB1 (2.5 nM), anti-His Terbium Cryptate Gold (1×, PerkinElmer Cat. #: 61HI2TLB), and Cy5-Thalidomide (100 nM, Tenova Cat.: T52461) was prepared in 20 mM HEPES, 20 mM NaCl, 0.2 mM TCEP, 0.2 mM EDTA, and 0.005% Tween20 was dispensed to each assay plate. Test compounds were stored in dry, ambient temperatures at 10 mM. A 10-point, 1:3 dilution series was prepared from 10 mM stock concentrations in Echo-compatible LDV plates. 10 nL of each compound dilution series was dispensed into assays wells using an Echo 650 (Labcyte inc. USA). 10 nL of 10 mM lenalidomide (Selleckchem Cat no. S1029) was transferred into the active-control wells for the assay and 10 nL of DMSO was transferred into the negative control wells. The assay was then allowed to incubate for 30 min at ambient temperature after transferring the test compounds. Plate measurements were taken on a Pherastar FSX (BMG Labtech, Germany) using the HTRF Red filter (Ex. 337 nm, em1: 620 nm, em2: 665 nm) (Flashes: 50, Integration time: 60-400 μs, Z-height: 10 mm, Ratio-multiplier: 10,000). Analysis, HTRF ratio and IC50 values were derived using KNIME analytics (KNIME Zurich) transformation and fitting within Collaborative Drug Discovery (Collaborative Drug Discovery USA) using a 4-parameter logistic fit. HTRF ratio calculation was performed using the following formula: […]
where Y represents the HTRF ratio response (as defined previously), X the compound concentration in μM, Ymin the minimum response plateau, Ymax the maximum response plateau, IC50 the concentration of agonist that gives a response half way between Ymin and Ymax and HillSlope the steepness of the family of curves. No fitting model constraints was applied on Ymin, or Ymax whilst IC50>0 and −0.5>HillSlope>−3
Ki values were derived from the geometric mean of the IC50 values using the Cheng-Prusoff transformation:
where [L] represents the concentration of fluorescent probe in μM, Kd the affinity (binding constant) of the fluorescent probe in units of μM and IC50 the concentration of agonist that gives a response halfway between Ymin and Ymax (as described in 1.2.1)
Analysis and IC50 values were derived using KNIME analytics (KNIME, Zurich) transformation and fitting within Collaborative Drug Discovery (Collaborative Drug Discovery, USA) as described in 1.2.1. Ki values were derived from the geometric mean of the IC50 values using the Cheng-Prusoff transformation as described in 2.2.2. Data was visualized in GraphPad Prism 8.1.2 (GraphPad, USA) and reported as mean and standard deviation. Microsoft Office Excel 2012 (Redmond, WA) was used for calculation of mean and standard deviation.
IC50 data are reported in Table 3 for compounds in Table 1. In Table 3 below, According to the code, A represents a IC50 value of ≤0.1 μM, B represents a IC50 value>0.1 μM and ≤1 μM, C represents an IC50 value>1 μM.

T1 sequence (P48729 whole entry): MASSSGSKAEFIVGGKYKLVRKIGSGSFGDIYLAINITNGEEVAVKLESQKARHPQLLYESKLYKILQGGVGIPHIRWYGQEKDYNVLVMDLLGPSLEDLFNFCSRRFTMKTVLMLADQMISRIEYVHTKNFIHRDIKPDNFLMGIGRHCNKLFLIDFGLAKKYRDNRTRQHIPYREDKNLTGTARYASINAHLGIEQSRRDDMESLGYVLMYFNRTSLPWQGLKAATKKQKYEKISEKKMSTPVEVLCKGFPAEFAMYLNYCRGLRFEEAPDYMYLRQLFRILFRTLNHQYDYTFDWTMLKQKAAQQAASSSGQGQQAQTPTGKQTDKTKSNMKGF
T1 sequence (Q96SW2 whole entry, further chain): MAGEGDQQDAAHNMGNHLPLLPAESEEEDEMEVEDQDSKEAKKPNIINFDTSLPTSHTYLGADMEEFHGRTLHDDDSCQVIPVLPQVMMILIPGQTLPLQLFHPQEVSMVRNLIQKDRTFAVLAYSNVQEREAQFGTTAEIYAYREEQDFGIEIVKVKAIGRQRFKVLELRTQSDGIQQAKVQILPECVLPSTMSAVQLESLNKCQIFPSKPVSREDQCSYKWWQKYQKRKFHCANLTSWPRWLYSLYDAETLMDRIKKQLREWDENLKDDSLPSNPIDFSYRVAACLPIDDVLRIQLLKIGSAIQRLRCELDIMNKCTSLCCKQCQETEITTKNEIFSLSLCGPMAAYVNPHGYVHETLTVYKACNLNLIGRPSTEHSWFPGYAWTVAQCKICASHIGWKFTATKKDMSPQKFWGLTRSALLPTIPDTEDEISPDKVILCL
T1 sequence (Q16531 2-1140 partner limits assumed): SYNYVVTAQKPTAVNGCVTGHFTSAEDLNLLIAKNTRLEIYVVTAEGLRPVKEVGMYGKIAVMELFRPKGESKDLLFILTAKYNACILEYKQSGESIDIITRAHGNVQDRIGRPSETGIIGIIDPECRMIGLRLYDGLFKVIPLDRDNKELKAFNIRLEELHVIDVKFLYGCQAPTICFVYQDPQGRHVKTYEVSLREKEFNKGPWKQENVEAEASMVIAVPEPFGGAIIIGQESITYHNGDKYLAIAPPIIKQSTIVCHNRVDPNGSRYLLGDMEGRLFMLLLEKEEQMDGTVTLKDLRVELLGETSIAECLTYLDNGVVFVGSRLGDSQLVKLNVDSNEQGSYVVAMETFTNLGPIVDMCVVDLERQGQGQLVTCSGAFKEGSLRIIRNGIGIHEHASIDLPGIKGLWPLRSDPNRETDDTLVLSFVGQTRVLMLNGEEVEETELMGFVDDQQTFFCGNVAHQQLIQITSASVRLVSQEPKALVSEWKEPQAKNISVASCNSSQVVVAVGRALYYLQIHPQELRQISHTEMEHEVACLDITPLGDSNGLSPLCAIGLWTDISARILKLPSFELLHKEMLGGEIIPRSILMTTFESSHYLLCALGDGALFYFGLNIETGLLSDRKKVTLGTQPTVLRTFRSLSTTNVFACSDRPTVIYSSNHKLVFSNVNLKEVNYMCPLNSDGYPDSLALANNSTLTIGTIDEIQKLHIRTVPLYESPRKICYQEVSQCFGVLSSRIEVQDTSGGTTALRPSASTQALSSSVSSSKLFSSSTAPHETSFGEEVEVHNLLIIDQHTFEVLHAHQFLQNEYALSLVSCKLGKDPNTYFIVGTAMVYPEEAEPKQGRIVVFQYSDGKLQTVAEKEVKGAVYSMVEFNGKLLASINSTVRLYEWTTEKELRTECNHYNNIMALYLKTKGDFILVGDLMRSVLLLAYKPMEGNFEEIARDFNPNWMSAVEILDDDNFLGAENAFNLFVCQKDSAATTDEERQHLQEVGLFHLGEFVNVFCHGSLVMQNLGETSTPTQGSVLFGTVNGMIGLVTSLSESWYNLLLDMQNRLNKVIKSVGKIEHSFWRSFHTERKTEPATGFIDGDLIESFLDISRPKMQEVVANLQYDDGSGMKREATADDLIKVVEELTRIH
Sequence of CRBN/DDB1 (Q96SW2 whole entry, species assumed): as the sequence (Q96SW2 whole entry, further chain) above
Sequence of CRBN/DDB1 (Q16531 whole entry partner, species assumed): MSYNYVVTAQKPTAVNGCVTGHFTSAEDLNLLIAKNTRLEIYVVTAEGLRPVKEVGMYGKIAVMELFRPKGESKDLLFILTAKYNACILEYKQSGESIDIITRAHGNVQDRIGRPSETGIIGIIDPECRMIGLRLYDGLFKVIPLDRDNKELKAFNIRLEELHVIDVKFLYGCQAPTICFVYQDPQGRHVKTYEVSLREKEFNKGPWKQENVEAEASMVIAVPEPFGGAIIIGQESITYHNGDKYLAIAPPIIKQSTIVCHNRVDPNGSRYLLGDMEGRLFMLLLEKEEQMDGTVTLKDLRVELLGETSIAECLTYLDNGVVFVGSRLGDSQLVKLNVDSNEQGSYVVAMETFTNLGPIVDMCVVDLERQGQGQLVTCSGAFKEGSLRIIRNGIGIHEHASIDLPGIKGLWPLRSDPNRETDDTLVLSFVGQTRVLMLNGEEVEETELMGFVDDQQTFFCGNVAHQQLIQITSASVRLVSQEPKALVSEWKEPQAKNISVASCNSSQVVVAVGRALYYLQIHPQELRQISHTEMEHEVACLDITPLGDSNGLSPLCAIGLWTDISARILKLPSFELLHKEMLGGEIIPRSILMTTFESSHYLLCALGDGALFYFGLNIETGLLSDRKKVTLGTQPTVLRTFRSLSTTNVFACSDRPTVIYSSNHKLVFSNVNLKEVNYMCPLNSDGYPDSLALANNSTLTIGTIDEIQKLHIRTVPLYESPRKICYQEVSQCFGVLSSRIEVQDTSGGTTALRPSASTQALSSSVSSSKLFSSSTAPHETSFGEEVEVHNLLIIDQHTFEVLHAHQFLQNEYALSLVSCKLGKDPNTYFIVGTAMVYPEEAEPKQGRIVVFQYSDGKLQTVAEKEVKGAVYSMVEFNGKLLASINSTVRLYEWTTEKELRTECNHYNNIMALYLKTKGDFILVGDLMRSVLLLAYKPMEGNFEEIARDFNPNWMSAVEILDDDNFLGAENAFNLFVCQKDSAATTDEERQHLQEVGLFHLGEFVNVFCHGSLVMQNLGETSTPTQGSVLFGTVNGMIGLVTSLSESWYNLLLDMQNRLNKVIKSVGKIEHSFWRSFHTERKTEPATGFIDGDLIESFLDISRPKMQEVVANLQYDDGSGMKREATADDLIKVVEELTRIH

| DC50 (CK1α) [µM] | IC50 (CRBN/DDB1) [nM] | SMILES |
| --- | --- | --- |
| < 0.1 | 100 to 1000 | O=C1CCC(N2Cc3cc(NC(=O)N4CCc5ccc(C6CCC6)cc54)ccc3C2=O)C(=O)N1 (stereo not drawn) [Compound 358, 6-cyclobutyl-N-(2-(2,6-dioxopiperidin-3-yl)-1-oxoisoindolin-5-yl)indoline-1-carboxamide] |
| 0.1 to 1 | 100 to 1000 | O=C1CCC(N2Cc3cc(NC(=O)N4CCOc5ccccc54)ccc3C2=O)C(=O)N1 (stereo not drawn) [Compound 285, N-(2-(2,6-dioxopiperidin-3-yl)-1-oxoisoindolin-5-yl)-2H-benzo[b][1,4]oxazine-4(3H)-carboxamide] |
| 0.1 to 1 | 100 to 1000 | O=C1CCC(N2Cc3cc(NC(=O)N4c5ccccc5C[C@H]4CN4CCC4)ccc3C2=O)C(=O)N1 (stereo partly drawn) [Compound 315, (2S)-2-(azetidin-1-ylmethyl)-N-(2-(2,6-dioxopiperidin-3-yl)-1-oxoisoindolin-5-yl)indoline-1-carboxamide] |
| 0.1 to 1 | 100 to 1000 | CN1CCN(c2ccc3c(c2)CCN3C(=O)Nc2ccc3c(c2)CN(C2CCC(=O)NC2=O)C3=O)CC1 (stereo not drawn) [Compound 351, N-(2-(2,6-dioxopiperidin-3-yl)-1-oxoisoindolin-5-yl)-5-(4-methylpiperazin-1-yl)indoline-1-carboxamide] |
| < 0.1 | 100 to 1000 | COCC1c2cc(C)ccc2CN1C(=O)Nc1ccc2c(c1)CN(C1CCC(=O)NC1=O)C2=O (stereo not drawn) [Compound 336, N-(2-(2,6-dioxopiperidin-3-yl)-1-oxoisoindolin-5-yl)-1-(methoxymethyl)-6-methylisoindoline-2-carboxamide] |
| < 0.1 | 100 to 1000 | O=C1CCC(N2Cc3cc(NC(=O)N4c5ccccc5C5CC54)ccc3C2=O)C(=O)N1 (stereo not drawn) [Compound 305, N-(2-(2,6-dioxopiperidin-3-yl)-1-oxoisoindolin-5-yl)-1a, 6b-dihydrocyclopropa[b]indole-2(1H)-carboxamide] |
| < 0.1 | 100 to 1000 | COC[C@@H]1Cc2c(F)cccc2N1C(=O)Nc1ccc2c(c1)CN(C1CCC(=O)NC1=O)C2=O (stereo partly drawn) [Compound 314, (2S)—N-(2-(2,6-dioxopiperidin-3-yl)-1-oxoisoindolin-5-yl)-4-fluoro-2-(methoxymethyl)indoline-1-carboxamide] |
| < 0.1 | 100 to 1000 | O=C1CCC(N2Cc3cc(NC(=O)N4CCc5c(C6COC6)cccc54)ccc3C2=O)C(=O)N1 (stereo not drawn) [Compound 342, N-(2-(2,6-dioxopiperidin-3-yl)-1-oxoisoindolin-5-yl)-4-(oxetan-3-yl)indoline-1-carboxamide] |
| 0.1 to 1 | 100 to 1000 | O=C1CCC(N2Cc3cc(NC(=O)N4CCc5ccc(C6CCOC6)cc54)ccc3C2=O)C(=O)N1 (stereo not drawn) [Compound 364, N-(2-(2,6-dioxopiperidin-3-yl)-1-oxoisoindolin-5-yl)-6-(tetrahydrofuran-3-yl)indoline-1-carboxamide] |
| < 0.1 | 100 to 1000 | O=C1CCC(N2Cc3cc(NC(=O)N4c5ccccc5CC4C(F)(F)F)ccc3C2=O)C(=O)N1 (stereo not drawn) [Compound 292, N-(2-(2,6-dioxopiperidin-3-yl)-1-oxoisoindolin-5-yl)-2-(trifluoromethyl)indoline-1-carboxamide] |
| < 0.1 | 100 to 1000 | COC[C@@H]1CN(C(=O)Nc2ccc3c(c2)CN(C2CCC(=O)NC2=O)C3=O)c2ccccc21 (stereo partly drawn) [Compound 328, (3S)—N-(2-(2,6-dioxopiperidin-3-yl)-1-oxoisoindolin-5-yl)-3-(methoxymethyl)indoline-1-carboxamide] |
| 0.1 to 1 | – | O=C1CCC(N2Cc3cc(NC(=O)N4CCC5(CC5)C4)ccc3C2=O)C(=O)N1 (stereo not drawn) [Compound 274] |
| < 0.1 | – | O=C1CCC(N2Cc3cc(NC(=O)N4CCC5(CCC5)C4)ccc3C2=O)C(=O)N1 (stereo not drawn) [Compound 278] |
| > 1 | – | O=C1CCC(N2Cc3cc(NC(=O)N4CCN(c5cccnc5)CC4)ccc3C2=O)C(=O)N1 (stereo not drawn) [Compound 249] |
| < 0.1 | – | Cc1cccc(C2CN(C(=O)Nc3ccc4c(c3)CN(C3CCC(=O)NC3=O)C4=O)C2)c1 (stereo not drawn) [Compound 226] |
| < 0.1 | – | C[C@@H]1Cc2cc(F)ccc2N1C(=O)Nc1ccc2c(c1)CN(C1CCC(=O)NC1=O)C2=O (stereo partly drawn) [Compound 363, (2R)—N-(2-(2,6-dioxopiperidin-3-yl)-1-oxoisoindolin-5-yl)-5-fluoro-2-methylindoline-1-carboxamide] |
| 0.1 to 1 | – | O=C1CCC(N2Cc3cc(NC(=O)N4CC(c5cccc(C(F)(F)F)c5)C4)ccc3C2=O)C(=O)N1 (stereo not drawn) [Compound 241] |
| < 0.1 | – | O=C1CC[C@@H](N2Cc3cc(NC(=O)N4c5ccccc5C[C@@H]4C(F)(F)F)ccc3C2=O)C(=O)N1 (single isomer, unassigned) [Compound 360] |

More lines, now with the values behind:

| SMILES | DC50 (CK1α) [µM] | IC50 (CRBN/DDB1) [nM] |
| --- | --- | --- |
| CC1(C)CN(C(=O)Nc2ccc3c(c2)CN(C2CCC(=O)NC2=O)C3=O)Cc2ccccc21 (stereo not drawn) [Compound 200] | < 0.1 | – |
| O=C1CCC(N2Cc3cc(NC(=O)N4Cc5ccccc5C5(CC5)C4)ccc3C2=O)C(=O)N1 (stereo not drawn) [Compound 136] | < 0.1 | – |
| O=C1CCC(N2Cc3cc(NC(=O)N4CCCc5cccc(OC(F)F)c54)ccc3C2=O)C(=O)N1 (stereo not drawn) [Compound 159] | 0.1 to 1 | – |
| O=C1CCC(N2Cc3cc(NC(=O)N4Cc5ccccc5C(F)(F)C4)ccc3C2=O)C(=O)N1 (stereo not drawn) [Compound 204] | < 0.1 | – |
| CC1CN(C(=O)Nc2ccc3c(c2)CN(C2CCC(=O)NC2=O)C3=O)c2ccccc21 (stereo not drawn) [Compound 119] | < 0.1 | – |
| O=C1CCC(N2Cc3cc(NC(=O)N4CCCc5ccc(C(F)F)cc54)ccc3C2=O)C(=O)N1 (stereo not drawn) [Compound 129] | < 0.1 | – |
| Cc1ccc2c(c1)CN(C(=O)Nc1ccc3c(c1)CN(C1CCC(=O)NC1=O)C3=O)C2 (stereo not drawn) [Compound 175] | < 0.1 | – |
| O=C1CCC(N2Cc3cc(NC(=O)N4Cc5ccc(Cl)cc5C4)ccc3C2=O)C(=O)N1 (stereo not drawn) [Compound 177] | < 0.1 | – |
| CC1Cc2ccccc2N(C(=O)Nc2ccc3c(c2)CN(C2CCC(=O)NC2=O)C3=O)C1 (stereo not drawn) [Compound 153] | < 0.1 | – |
| N#Cc1cccc2c1CN(C(=O)Nc1ccc3c(c1)CN(C1CCC(=O)NC1=O)C3=O)C2 (stereo not drawn) [Compound 213] | 0.1 to 1 | – |
| O=C1CCC(N2Cc3cc(NC(=O)N4Cc5ccccc5C(n5cccn5)C4)ccc3C2=O)C(=O)N1 (stereo not drawn) [Compound 206] | 0.1 to 1 | – |
| O=C1CCC(N2Cc3cc(NC(=O)N4CC(n5cccn5)Cc5ccccc54)ccc3C2=O)C(=O)N1 (stereo not drawn) [Compound 161] | 0.1 to 1 | – |
| O=C1CCC(N2Cc3cc(NC(=O)N4CCCc5cc(F)ccc54)ccc3C2=O)C(=O)N1 (stereo not drawn) [Compound 141] | < 0.1 | – |
| O=C1CCC(N2Cc3cc(NC(=O)N4C5CCCC4C5)ccc3C2=O)C(=O)N1 (stereo not drawn) [Compound 218] | < 0.1 | – |
| O=C1CCC(N2Cc3cc(NC(=O)N4CCc5ccccc5C4C(F)(F)F)ccc3C2=O)C(=O)N1 (stereo not drawn) [Compound 130] | < 0.1 | – |
| O=C1CCC(N2Cc3cc(NC(=O)N4CCc5c(F)cccc5C4)ccc3C2=O)C(=O)N1 (stereo not drawn) [Compound 184] | < 0.1 | – |
